# Data published in publication PMC11905058, “Novel Leech Antimicrobial Peptides, Hirunipins: Real‐Time 3D Monitoring of Antimicrobial and Antibiofilm Mechanisms Using Optical Diffraction Tomography” (Advanced Science, 2025).
# Columns and labels:
# [1] = test system: Escherichia coli [KCTC 1682]; assay type: cell-based; details: CLSI broth microdilution in MHB, 1×10^6 CFU/well, 37 °C, 24 h, optical density
# Protocol: (§1) The MICs of the peptides were measured by the Clinical and Laboratory Standards Institute (CLSI) broth microdilution method, as outlined in a previous study.^[ [26], [27] ^]
# (§2) Minimal Inhibitory Concentrations (MICs): Bacteria were grown to mid-logarithmic phase and diluted in Mueller-Hinton broth (MHB) (Difco). The bacterial suspension (1×10^6 CFU/well) was added to a 96-well microtiter plate along with a two-fold serial dilution of samples. The plate was incubated at 37 °C for 24 hours and the bacterial growth inhibition was assessed by measuring the optical density using an ELISA plate reader. The minimum inhibitory concentration (MIC) was defined as the lowest concentration of samples that prevented visible bacterial growth.
# [2] = test system: Pseudomonas aeruginosa [KCTC 1637]; assay type: cell-based; details: CLSI broth microdilution in MHB, 1×10^6 CFU/well, 37 °C, 24 h, optical density
# Protocol: as §1, §2
# [3] = test system: Staphylococcus aureus [KCTC1621]; assay type: cell-based; details: CLSI broth microdilution in MHB, 1×10^6 CFU/well, 37 °C, 24 h, optical density
# Protocol: as §1, §2
# [4] = test system: Staphylococcus epidermidis [KCTC 1917]; assay type: cell-based; details: CLSI broth microdilution in MHB, 1×10^6 CFU/well, 37 °C, 24 h, optical density
# Protocol: as §1, §2
# MDRE (328-84) = assay type: cell-based, Enterobacter cloacae; details: clinically isolated multidrug-resistant Enterobacter cloacae; broth microdilution
# Protocol: as §1
# Microbial Strains and Cell Lines: Multiple bacterial strains were used in this study. Standard stains included Escherichia coli (KCTC 1682), Pseudomonas aeruginosa (KCTC 1637), Staphylococcus aureus (KCTC1621) and Staphylococcus epidermidis (KCTC 1917) supplied from the Korean Collection for Type Cultures (KCTC) of the Korea Research Institute of Bioscience and Biotechnology (KRIBB). Clinically isolated multidrug-resistant bacteria included multidrug-resistant Klebsiella pneumonia (MDRKP 328-83), multidrug-resistant Acinetobacter baumannii (MDRAB 329-53), multidrug-resistant Pseudomonas aeruginosa (MDRPA 314-69), multidrug-resistant Enterobacter cloacae (MDRE 328-84) and multidrug-resistant Escherichia coli (MDREC 329-66) provided from Hospital of Chosun University, Korea. All bacterial strains were stored in 20% glycerol at −80 °C. For the subsequent experiments, the bacteria were recovered and cultured in the corresponding enrichment broth at 37 °C. The mouse macrophage RAW264.7, mouse fibroblast NIH-3T3 and human keratinocyte HaCat cells were cultured in Dulbecco’s modified Eagle’s medium (DMEM), supplemented with 10% (v/v) of fetal bovine serum (Sigma-Aldrich), 100 U/mL of penicillin and 0.1 mg/mL of streptomycin, at 37 °C in the presence of 5% CO2
# as §2
# E. coli (KCTC 1682) [5] = experiment: PI influx assay by flow cytometry; assay type: cell-based, Escherichia coli; details: 16 µg mL^−1, 60 min, 37 °C, PI 10 µg/mL, untreated 6.9%
# Protocol: (§3) Damage to membrane integrity induced by the peptides was evaluated by flow cytometry of E. coli (KCTC 1682) and S. aureus (KCTC 1621) cells stained with the membrane‐impermeable dye PI, as previously described.^[ [26], [27] ^]
# (§4) Flow Cytometry Analysis: E. coli (KCTC 1682) and S. aureus (KCTC 1621) were cultured in LB broth until they reached mid-log-phase, then washed and resuspended in PBS to a density of 2 × 10^5 CFU/mL. The bacterial suspension was incubated with the samples and 10 µg/mL of propidium iodide (PI), a fluorescent dye, at 37 °C for 1 hour in the dark. The samples were then centrifuged and washed twice in PBS to remove any excess dye. The fluorescence of PI, which indicates membrane damage, was measured by FACS flow cytometer (Agilent, ACEA Bioscience Inc.) using a laser excitation wavelength of 488 nm.
# S. aureus (KCTC 1621) [6] = experiment: PI influx assay by flow cytometry; assay type: cell-based, Staphylococcus aureus; details: 16 µg mL^−1, 60 min, 37 °C, PI 10 µg/mL, untreated 9.5%
# Protocol: as §3, §4
# S. aureus (KCTC 1621) [7] = experiment: Membrane depolarization assay (diSC3-5); assay type: cell-based, Staphylococcus aureus; details: diSC3-5 fluorescence, monitored 500 s
# Protocol: The FL dye diSC3‐5 (3,3′‐dipropylthiadicarbocyanine iodide) was utilized to assess the depolarizing impact of peptides on the cytoplasmic membrane of S. aureus (KCTC 1621), following a previously established method.^[ [26], [27] ^]
# Membrane Depolarization Assay: Briefly, mid-log phase S. aureus (KCTC 1621) was harvested and washed three times with 5 mM HEPES buffer (pH 7.4, containing 20 mM glucose), and resuspended to an OD600 of 0.05 in the same buffer. The cell suspension was incubated with 0.4 μM diSC3-5 for 90 min such that most of the dye molecules gathered at the cytoplasmic membrane. To equilibrate the cytoplasmic and external K^+ concentrations, KCl was added to the cell suspension containing diSC3-5 to obtain a final concentration of 100 mM, followed by incubating the cells at room temperature for 15−30 min, with peptide aliquots added to 2 mL of suspension. The fluorescence was recorded using a model RF-5301 PC fluorescence spectrophotometer (Shimadzu) at an excitation wavelength of 622 nm and an emission wavelength of 670 nm.
# E. coli (KCTC 1682) [8] = experiment: Multipassage drug resistance study; assay type: cell-based, Escherichia coli; details: continuous exposure at sub-MIC (0.5×MIC)
# Protocol: The MICs of hirunipin 2 and antibiotics were determined, and the concentration of each sub‐MIC (0.5×MIC) of E. coli (KCTC 1682) was diluted to 1 × 10^6 CFU mL^−1 with MHB for the next passaged MIC determination. This procedure was repeated fifteen times. Ciprofloxacin and tetracycline were used as the controls.
# MDRAB (329-53) = test system: MDRAB (329-53)
# Protocol: Synergy testing by checkerboard assay: Briefly, each 96-well microtiter plate was inoculated with two-fold serial dilutions of two antibiotics, ranging from 1/8 MIC to 2 MIC, such that one antibiotic was inoculated in the columns and the other in the rows. Then, MDRAB (329-53) cells were inoculated at a concentration of 1× 10^6 CFU/mL. The plates were incubated overnight under static conditions and observed visually.
# [9] = antibiotic in combination with hirunipin 2
# [10] = in combination with hirunipin 2
Compound,"Minimum inhibitory concentration (MIC), Escherichia coli [KCTC 1682] [1]","Minimum inhibitory concentration (MIC), Pseudomonas aeruginosa [KCTC 1637] [2]","Minimum inhibitory concentration (MIC), Staphylococcus aureus [KCTC1621] [3]","Minimum inhibitory concentration (MIC), Staphylococcus epidermidis [KCTC 1917] [4]","Minimum inhibitory concentrations, MDRE (328-84) (MDRE (328-84))","percentage of PI-positive cells, E. coli (KCTC 1682) (E. coli (KCTC 1682) [5])","percentage of PI-positive cells, S. aureus (KCTC 1621) (S. aureus (KCTC 1621) [6])",effect on membrane potential (in words) (S. aureus (KCTC 1621) [7]),fold-change in the MICs after 15 passages (E. coli (KCTC 1682) [8]),"FICI: fractional inhibitory concentration index, FICA + FICB (MDRAB (329-53); [9])",Interpretation of FICI (MDRAB (329-53); [9]),"MICA: MIC of antibiotic alone (MDRAB (329-53); checkerboard, MDRAB, 1×10^6 CFU/mL)",FICA: fractional inhibitory concentration of antibiotic ([A] / MICA) (MDRAB (329-53); [10]),[A]: MIC of antibiotic in combination (MDRAB (329-53); [10])
"CC[C@H](C)[C@H](NC(=O)CN)C(=O)NCC(=O)N[C@@H](C)C(=O)N[C@H](C(=O)N[C@@H](CC(C)C)C(=O)N[C@@H](CCCCN)C(=O)N[C@H](C(=O)N[C@@H](CC(C)C)C(=O)N[C@H](C(=O)N[C@H](C(=O)NCC(=O)N[C@@H](CC(C)C)C(=O)N1CCC[C@H]1C(=O)N[C@@H](C)C(=O)N[C@@H](CC(C)C)C(=O)N[C@H](C(=O)N[C@@H](CO)C(=O)N[C@@H](Cc1c[nH]c2ccccc12)C(=O)N[C@H](C(=O)N[C@@H](CCCCN)C(=O)N[C@@H](CCCNC(=N)N)C(=O)N[C@@H](CCCCN)C(=O)N[C@@H](CCCNC(=N)N)C(=O)N[C@@H](CCC(N)=O)C(=O)N[C@@H](CCC(N)=O)C(N)=O)[C@@H](C)CC)[C@@H](C)CC)[C@@H](C)O)[C@@H](C)O)C(C)C)C(C)C [Melittin, reference compound]",32 µg/mL,32 µg/mL,16 µg/mL,32 µg/mL,64 µg/mL,91.6%,99.5%,,,,,,,
Buforin‐2 [Buforin-2],,,,,,7.6%,9.6%,did not affect membrane potential,,,,,,
"CN(C)[C@@H]1C(O)=C(C(N)=O)C(=O)[C@@]2(O)C(O)=C3C(=O)c4c(O)cccc4[C@@](C)(O)[C@H]3C[C@@H]12 [TET, Tetracycline]",,,,,,,,,32 fold,0.25,synergy (FICI ≤ 0.5 was interpreted as synergy),16 µg/mL,0.125,2 µg/mL
